Results taken from patent publication US11878987B2, “Heterocyclic compound as TRK inhibitor” (Beijing Innocare Pharma Tech Co., Ltd., priority 2018, dated 2024).
pIC50: −log10 of the molar value.

Experiments:
[1] = biological target: T1, TRKA G595R (Homo sapiens, UniProt P04629, G595R); assay: TRKA G595R activity inhibition test (HTRF kinase assay); format: biochemical; settings: humanized recombined TRKA G595R protein, 2.9 μM ATP
T1 construct: purchased Signal Chem Life Sciences N16-12BG
Description: TRKA G595R Activity Inhibition Test:
The effect of the compounds of the invention on the activity of TRKA G595R was evaluated by the in vitro kinase assay.
The experimental method was summarized below:
The in vitro activity of TRKA G595R was measured using a HTRF kinase assay kit (Cisbio, No. 62TKOPEC) by detecting the phosphorylation level of the substrate in the kinase reaction. The reaction buffer contained the following components: the reaction buffer of the enzyme in the kit (1×), 5 mM MgCl2, 1 mM DTT. The humanized recombined TRKA G595R protein (No. N16-12BG, purchased from Signal Chem Life Sciences) was diluted into 0.25 ng/kinase solution with the reaction buffer. The substrate reaction solution comprised 0.51 μM biotin-labeled tyrosine kinase substrate and 2.9 μM ATP, which was diluted with reaction buffer. The detection buffer comprised 0.15 ng/μL cage antibody labelled with Eu3+ and 31.875 nM XL665 labeled with streptavidin, which was diluted with reaction buffer.
The compound was dissolved into 100% DMSO and diluted to 1 mM or 100 μM, then diluted with DMSO in 4 times serial dilution to a minimum concentration of 61 or 6.1 nM, and each concentration point was further diluted 40 times with the reaction buffer.
4 μl of solution of the test compound and 2 μl of solution of TRKA G595R kinase were added to the 384 well plate (Corning No. 4512), mixed well and incubated at room temperature for 15 minutes. Then 4 μl of solution of substrate was added and the reaction mixture was incubated at room temperature for 60 minutes. 10 μl of detection buffer of the same volume as the reaction mixture was then added, the reaction mixture was mixed well and allowed to stand for 30 minutes at room temperature. The reaction process was monitored at the wavelength of 620 nm and 665 nm by Envision board reader (Perkin Elmer). The ratio of 665/620 was positively correlated with the phosphorylation level of the substrate, then TRKA G595R kinase activity was determined. In this experiment, the group without TRKA G595R kinase was used as the negative control (100% inhibition), the group with TRKA G595R but without the test compound was used as the positive control (0% inhibition). The inhibition percentage of the test compound on TRKA G595R activity can be calculated by the following formula: Inhibition percentage=100−100*(signal value of the test compound under specific concentration−signal value of the negative control)/(signal value of the positive control−signal value of the negative control) The IC50 value of the test compound was calculated at 8 concentration points by use of XLfit (ID Business Solutions Ltd. UK) software through the following formula: Y=Bottom+(Top−Bottom)/(1+10^((log IC50−X)*slope factor)) […]

[2] = biological target: T2, TRKA G667C (Homo sapiens, UniProt P04629, G667C); assay: TRKA G667C activity inhibition test (HTRF kinase assay); format: biochemical; settings: humanized recombined TRKA G667C protein, 2.7 μM ATP
T2 construct: purchased Signal Chem Life Sciences N16-12 CG
T2 sequence (P04629 33-796 G667C): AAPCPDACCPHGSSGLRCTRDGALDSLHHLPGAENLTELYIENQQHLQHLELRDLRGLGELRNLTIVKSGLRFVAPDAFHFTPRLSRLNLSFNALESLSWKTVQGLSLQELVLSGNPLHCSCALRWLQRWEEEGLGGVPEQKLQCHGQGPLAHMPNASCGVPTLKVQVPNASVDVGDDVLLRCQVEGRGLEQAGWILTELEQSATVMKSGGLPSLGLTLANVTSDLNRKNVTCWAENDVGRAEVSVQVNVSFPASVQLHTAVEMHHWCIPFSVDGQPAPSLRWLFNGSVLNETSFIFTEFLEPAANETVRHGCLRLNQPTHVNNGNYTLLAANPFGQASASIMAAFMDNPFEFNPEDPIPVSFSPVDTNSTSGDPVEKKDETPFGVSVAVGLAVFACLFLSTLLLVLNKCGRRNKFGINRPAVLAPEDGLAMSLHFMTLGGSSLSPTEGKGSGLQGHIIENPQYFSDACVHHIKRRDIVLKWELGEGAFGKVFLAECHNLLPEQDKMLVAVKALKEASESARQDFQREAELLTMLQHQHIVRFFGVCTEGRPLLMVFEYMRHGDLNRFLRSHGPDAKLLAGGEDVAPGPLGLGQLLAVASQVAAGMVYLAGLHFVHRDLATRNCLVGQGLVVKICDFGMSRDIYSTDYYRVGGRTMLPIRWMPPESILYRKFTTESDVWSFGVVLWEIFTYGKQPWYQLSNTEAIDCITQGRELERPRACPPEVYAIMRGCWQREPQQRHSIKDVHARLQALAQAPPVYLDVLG
Description: TRKA G667C Activity Inhibition Test:
The effect of the compounds of the invention on the activity of TRKA G667C was evaluated by the in vitro kinase assay.
The experimental methods were summarized below:
The in vitro activity of TRKA G667C was measured using a HTRF kinase assay kit (Cisbio, No. 62TKOPEC) by detecting the phosphorylation level of the substrate in the kinase reaction.
The reaction buffer contained the following components: reaction buffer of the enzyme in the kit (1×), 5 mM MgCl2, 1 mM DTT. The humanized recombined TRKA G667C protein (No. N16-12 CG, Signal Chem Life Sciences) was diluted into 0.09 ng/μl kinase solution with the reaction buffer. […]
4 μl of solution of the test compound and 2 μl of solution of TRKA G667C kinase were added to the 384 well plate (Corning No. 4512), mixed well and incubated at room temperature for 15 minutes. […] The reaction process was monitored at the wavelength of 620 nm and 665 nm by Envision board reader (Perkin Elmer). The ratio of 665/620 was positively correlated with the phosphorylation level of the substrate, then TRKA G667C kinase activity was determined. […]
The IC50 value of the compound was calculated at 8 concentration points by XLfit (ID Business Solutions Ltd. UK) software through the following formula: Y=Bottom+(Top−Bottom)/(1+10^((log IC50−X)*slope factor)) […]

[3] = biological target: TRKA (Homo sapiens, UniProt P04629); assay: TRKA activity inhibition test (HTRF kinase assay); format: biochemical; settings: humanized recombined TRKA protein, 8.4 μM ATP
Chain of TRKA (P04629 33-796): as the sequence (P04629 33-796 G667C) above, with C635G counted along it
Description: TRKA Activity Inhibition Test
The effect of the compounds of the invention on TRKA activity was evaluated by in vitro kinase assays
(§1) The experimental methods were summarized as follows:
The in vitro activity of TRKA was measured by the use of a homogeneous time-resolved fluorescence (HTRF) kinase assay kit (Cisbio, NO. 62TKOPEC) through detecting the phosphorylation level of the substrate in the kinase reaction. The reaction buffer contained the following components: reaction buffer of the enzyme in the kit (1×), 5 mM MgCl2, 1 mM DTT; The humanized recombined TRKA protein was expressed and purified by the purification and identification platform of Tsinghua university, and was diluted into kinase solution (3 ng/μl) with the reaction buffer. The substrate reaction solution comprised 0.23 μM biotin-labeled tyrosine kinase substrate and 8.4 μM ATP, which was diluted with reaction buffer. The detection buffer comprised 0.1 ng/μL cage antibody labelled with Eu3+ and 14.375 nM XL665 labeled with streptavidin, which was diluted with reaction buffer.
The compound was dissolved into 100% DMSO and diluted to 100 or 10 μM, then diluted with DMSO in 4 times serial dilution to a minimum concentration of 6.1 or 0.61 nM, and each concentration point was further diluted 40 times with the reaction buffer.
To the 384 well plate (Corning No. 4512), 4 μl of the solution of the test compound and 2 μl of the solution of TRKA kinase were added respectively, then mixed well and incubated at room temperature for 15 minutes. 4 μl of the solution of substrate was then added and the reaction mixture was incubated at room temperature for 60 minutes. A 10 μl detection buffer of the same volume as the reaction mixture was then added, the mixture was mixed well and allowed to stand for 30 minutes at room temperature. The reaction process was monitored at the wavelengths of 620 nm and 665 nm by Envision board reader (Perkin Elmer). The ratio of 665/620 was positively correlated with the phosphorylation level of the substrate, then TRKA kinase activity was determined. […] The inhibition percentage of the test compound on the TRKA activity can be calculated by the following formula: The IC50 value of the compound was calculated at 8 concentration points by use of XLfit software (ID Business Solutions Ltd. UK) through the following formula: Y=Bottom+(Top−Bottom)/(1+10^((log IC50−X)*slope factor)) Of which Y is the inhibition percentage; X is the logarithm of the concentration of the compound to be tested; Bottom is the […] inhibition percentage; Top is the […] inhibition percentage; slope factor is the slope coefficient of the curve.

[4] = system: KM12 cells; assay: KM12 cell proliferation, luminescent cell viability test (CellTiter-Glo); format: cell-based; settings: Homo sapiens, 96 hours, CTG
Description: Determination of Median Effective Inhibition Concentration GI50 in KM12 Cells
The effect of the compounds of the invention on the proliferation of KM12 cells was evaluated by the luminescent cell viability test.
as §1
CellTilter-Glo (CTG) detection kit was used. A unique and stable luciferase was used to detect ATP, an indicator of viable cell metabolism. The luminescence signal generated in the experiment was proportional to the number of viable cells in the culture medium, thus the proliferation of KM12 cells was detected.
KM12 cell (purchased from Shanghai Xinyu biological Co.) was cultured in IMDM complete medium (Thermo Fisher, 12440053) containing 10% FBS (GBICO, 10099-141) and 100 units/ml of penicillin streptomycin mixture (Thermofisher, 15140122). When the cell coverage rate in the culture container reached 80-90%, 0.25% trypsin (containing EDTA) (Thermofisher, 25200056) was used to digest and disperse the cells, then they were planted in a white 384 well plate (164610). To each well containing 1000 cells was added 27 μL IMDM complete medium. Then the 384 well plate was cultured overnight in an incubator containing 5% CO2 at 37° C. The compound was dissolved into 100% DMSO and diluted to 1 mM, then diluted with DMSO in 4 times serial dilution to the lowest concentration of 0.061 μM. Each concentration point was further diluted 50 times with IMDM medium. If the IC50 value of the compound was very low, the initial concentration of the compound can be reduced. 3 μl Diluted compound was added into each well, centrifuged and mixed well gently. The medium without cells was used as negative control (100% inhibition), and the group with 0.2% DMSO was used as positive control (0% inhibition).
The 384 well plate was placed in the incubator at 37° C. and 5% CO2 for further incubation. After 96 hours, the plate was taken out and placed at room temperature for 30 minutes. […] Then the cold light signal was read by Envision (Perkin Elmer). […]
The percentage of inhibition of KM12 cell proliferation by the compounds can be calculated by the following formula: Inhibition percentage=100−100*{[(Signalcompound−Signalnegative control)−T0control]/[(Signalpositive control−Signalnegative control)−T0control]}
The IC50 values of compounds were calculated by XLfit (ID Business Solutions Ltd., UK) software at 8 concentration points through the following formula: Y=Bottom+(Top−Bottom)/(1+10^((Log IC50−X)*slope factor))
Of which, Y is the inhibition percentage, Bottom is the bottom plateau of the curve (the bottom platform value of S curve), Top is the top plateau of the curve (the top platform value of S curve), X is the logarithm of the concentration of the compound to be measured.

[5] = early clinical trials, cited from earlier work

T1 sequence (P04629 33-796 G595R): as the sequence (P04629 33-796 G667C) above, with G563R, C635G counted along it

SMILES	pIC50 [1]	pIC50 [2]	pIC50 [3]	GI50 [4] [nM]	patients in complete remission ([5]; 6 patients, no tumor detectable by existing methods) [%]	patients who achieved objective responses ([5]; 38 patients) [%]	patients in remission for more than a year [5] [patients]
O=C(Nc1cnn2ccc(N3CCC[C@@H]3c3cc(F)ccc3F)nc12)N1CC[C@H](O)C1 [larotrectinib]	–	–	–	–	12	76	30
O=C1NCCOc2ncc(F)cc2[C@H]2C[C@H](F)CN2c2ccn3ncc(c3n2)N1 [Compound 2, (2^2R,2^4S)-2^4,3^5-difluoro-4-oxa-7,9-diaza-1(5,3)-pyrazolo[1,5-a]pyrimidin-3(3,2)-pyridin-2(1,2)-pyrrolidincyclononan-8-one]	7.91	7.79	9.01	3.12	–	–	–
CN1CCOc2ncc(F)cc2[C@H]2C[C@H](F)CN2c2ccn3ncc(c3n2)NC1=O [Compound 3, (2^2R,2^4S)-2^4,3^5-difluoro-7-methyl-4-oxa-7,9-diaza-1(5,3)-pyrazolo[1,5-a]pyrimidin-3(3,2)-pyridin-2(1,2)-pyrrolidincyclononan-8-one]	7.99	–	8.84	33.7	–	–	–

The next lines start with results.

pIC50 [1]	pIC50 [2]	pIC50 [3]	SMILES	GI50 [4] [nM]	patients in complete remission ([5]; 6 patients, no tumor detectable by existing methods) [%]	patients who achieved objective responses ([5]; 38 patients) [%]	patients in remission for more than a year [5] [patients]
9.59	8.79	9.62	C[C@H]1CNC(=O)Nc2cnn3ccc(nc23)N2C[C@@H](F)C[C@@H]2c2cc(F)cnc2O1 [Compound 1, (2^2R,2^4S,5S)-2^4,3^5-difluoro-5-methyl-4-oxa-7,9-diaza-1(5,3)-pyrazolo[1,5-a]pyrimidin-3(3,2)-pyridin-2(1,2)-pyrrolidincyclononan-8-one]	0.43	–	–	–
8.85	–	8.97	C[C@H]1CCNC(=O)Nc2cnn3ccc(nc23)N2CCC[C@@H]2c2cc(F)cnc2O1 [Compound 4, (2^2R,5S)-3^5-fluoro-5-methyl-4-oxa-8,10-diaza-1(5,3)-pyrazolo[1,5-a]pyrimidin-3(3,2)-pyridin-2(1,2)-pyrrolidincyclodecan-9-one]	2.26	–	–	–
